Read-outs that look alike come from different tables or passages of the source.

One assay concerns the target T1, EGFR (Homo sapiens, UniProt P00533).
T1 construct: ROS or EGFR enzyme, 0.008 ng/ul
Description: In vitro EGFR enzymatic reaction assay (HTRF, Cisbio). The assay is classed as biochemical.

For assay [1], the target named is T2, ROS (Homo sapiens, UniProt P08922). The assay can be described thus: In vitro ROS enzymatic reaction assay (HTRF, Cisbio). Conditions: for inhibition at 5 µM: ROS kinase, compound at 5 uM, read-out: Kinase Inhib. 5 uM (%). The assay is classed as biochemical. Further details: ROS or EGFR enzyme, 0.008 ng/ul. The method, then: The ROS enzymatic reactions were carried out with a high throughput screening platform for phosphor-detection of kinase activity. This platform based on homogeneous time resolved fluorescence (HTRF) technology from Cisbio Bioassays, Inc. (Cisbio). […] The reaction was allowed to proceed for 30 minutes at room temperature. An equal volume of detection buffer was then added to the reaction mix.
(In general: Time-resolved FRET reads energy transfer from a long-lived donor to a nearby acceptor.)

Assay [2] deals with T2, ROS. To be noted: reported in background; cited from earlier work.
The test system of assay [3] is U87 glioblastoma cell line. Description: In-vitro cell survival assay (Alamar blue), U87. The assay is classed as cell-based. Conditions: U87, one day after compound addition. In outline: (§1)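 Cells seeded at 2-5×10^3 per well, grown 2 days, then exposed to compound at 100, 10 or 1 uM (0.5% DMSO final) for one day. Alamar blue redox dye read as proliferation/viability, normalized to vehicle wells as percent decrease and converted to EC50.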
For orientation: Alamar Blue is a resazurin reagent that responds to reducing activity.

The subject of assay [4] is U138 glioblastoma cell line. The assay can be described thus: In-vitro cell survival assay (Alamar blue), U138. To be noted: U138, one day after compound addition. The assay is classed as cell-based. Put shortly:
as §1

For assay [5], the system named is HeLa cervical cancer cell line. Description: In-vitro cell survival assay (Alamar blue), HeLa. Format: cell-based. Conditions: one day after compound addition. In outline:
as §1

Assay [6] has as its system U118 glioblastoma cell line. Description: In-vitro cell survival assay (Alamar blue), U118. The assay is classed as cell-based. Conditions: U118, one day after compound addition. Put shortly:
as §1

Assay [7] deals with LN18 glioblastoma cell line. The assay can be described thus: In-vitro cell survival assay (Alamar blue), LN18. To be noted: LN18, one day after compound addition. Format: cell-based. Put shortly: as §1

T1 sequence (P00533 25-1210, species assumed): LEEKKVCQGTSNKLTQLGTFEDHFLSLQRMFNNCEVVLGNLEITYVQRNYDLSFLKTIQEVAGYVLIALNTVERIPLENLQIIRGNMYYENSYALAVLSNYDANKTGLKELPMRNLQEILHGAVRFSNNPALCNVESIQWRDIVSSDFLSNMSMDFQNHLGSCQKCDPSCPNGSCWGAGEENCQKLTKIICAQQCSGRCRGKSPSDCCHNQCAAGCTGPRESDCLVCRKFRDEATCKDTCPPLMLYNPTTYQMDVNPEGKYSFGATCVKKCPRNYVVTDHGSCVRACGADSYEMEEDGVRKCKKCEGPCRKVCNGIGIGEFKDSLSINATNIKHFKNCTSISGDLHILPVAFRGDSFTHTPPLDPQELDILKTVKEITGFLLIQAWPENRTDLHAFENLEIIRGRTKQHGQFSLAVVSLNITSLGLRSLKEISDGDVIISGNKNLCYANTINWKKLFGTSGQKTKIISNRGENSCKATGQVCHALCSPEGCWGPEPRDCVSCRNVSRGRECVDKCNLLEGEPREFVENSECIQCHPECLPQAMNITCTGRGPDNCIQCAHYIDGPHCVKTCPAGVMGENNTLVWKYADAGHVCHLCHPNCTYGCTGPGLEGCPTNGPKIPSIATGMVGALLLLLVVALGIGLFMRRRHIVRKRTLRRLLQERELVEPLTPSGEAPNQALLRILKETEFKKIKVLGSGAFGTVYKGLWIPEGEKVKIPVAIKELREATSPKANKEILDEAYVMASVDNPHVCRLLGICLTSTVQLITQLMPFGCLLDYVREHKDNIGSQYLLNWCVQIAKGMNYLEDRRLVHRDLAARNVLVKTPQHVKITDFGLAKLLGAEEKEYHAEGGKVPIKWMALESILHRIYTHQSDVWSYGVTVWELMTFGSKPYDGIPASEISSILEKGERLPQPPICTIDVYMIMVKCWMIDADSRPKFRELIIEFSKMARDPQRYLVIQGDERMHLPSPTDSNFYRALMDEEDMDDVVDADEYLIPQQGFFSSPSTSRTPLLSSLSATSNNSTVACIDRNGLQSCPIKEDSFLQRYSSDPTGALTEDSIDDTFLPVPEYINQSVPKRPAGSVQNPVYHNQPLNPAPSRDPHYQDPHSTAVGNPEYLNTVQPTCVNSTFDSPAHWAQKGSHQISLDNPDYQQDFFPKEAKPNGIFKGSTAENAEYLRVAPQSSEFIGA
T2 sequence (P08922 28-2347): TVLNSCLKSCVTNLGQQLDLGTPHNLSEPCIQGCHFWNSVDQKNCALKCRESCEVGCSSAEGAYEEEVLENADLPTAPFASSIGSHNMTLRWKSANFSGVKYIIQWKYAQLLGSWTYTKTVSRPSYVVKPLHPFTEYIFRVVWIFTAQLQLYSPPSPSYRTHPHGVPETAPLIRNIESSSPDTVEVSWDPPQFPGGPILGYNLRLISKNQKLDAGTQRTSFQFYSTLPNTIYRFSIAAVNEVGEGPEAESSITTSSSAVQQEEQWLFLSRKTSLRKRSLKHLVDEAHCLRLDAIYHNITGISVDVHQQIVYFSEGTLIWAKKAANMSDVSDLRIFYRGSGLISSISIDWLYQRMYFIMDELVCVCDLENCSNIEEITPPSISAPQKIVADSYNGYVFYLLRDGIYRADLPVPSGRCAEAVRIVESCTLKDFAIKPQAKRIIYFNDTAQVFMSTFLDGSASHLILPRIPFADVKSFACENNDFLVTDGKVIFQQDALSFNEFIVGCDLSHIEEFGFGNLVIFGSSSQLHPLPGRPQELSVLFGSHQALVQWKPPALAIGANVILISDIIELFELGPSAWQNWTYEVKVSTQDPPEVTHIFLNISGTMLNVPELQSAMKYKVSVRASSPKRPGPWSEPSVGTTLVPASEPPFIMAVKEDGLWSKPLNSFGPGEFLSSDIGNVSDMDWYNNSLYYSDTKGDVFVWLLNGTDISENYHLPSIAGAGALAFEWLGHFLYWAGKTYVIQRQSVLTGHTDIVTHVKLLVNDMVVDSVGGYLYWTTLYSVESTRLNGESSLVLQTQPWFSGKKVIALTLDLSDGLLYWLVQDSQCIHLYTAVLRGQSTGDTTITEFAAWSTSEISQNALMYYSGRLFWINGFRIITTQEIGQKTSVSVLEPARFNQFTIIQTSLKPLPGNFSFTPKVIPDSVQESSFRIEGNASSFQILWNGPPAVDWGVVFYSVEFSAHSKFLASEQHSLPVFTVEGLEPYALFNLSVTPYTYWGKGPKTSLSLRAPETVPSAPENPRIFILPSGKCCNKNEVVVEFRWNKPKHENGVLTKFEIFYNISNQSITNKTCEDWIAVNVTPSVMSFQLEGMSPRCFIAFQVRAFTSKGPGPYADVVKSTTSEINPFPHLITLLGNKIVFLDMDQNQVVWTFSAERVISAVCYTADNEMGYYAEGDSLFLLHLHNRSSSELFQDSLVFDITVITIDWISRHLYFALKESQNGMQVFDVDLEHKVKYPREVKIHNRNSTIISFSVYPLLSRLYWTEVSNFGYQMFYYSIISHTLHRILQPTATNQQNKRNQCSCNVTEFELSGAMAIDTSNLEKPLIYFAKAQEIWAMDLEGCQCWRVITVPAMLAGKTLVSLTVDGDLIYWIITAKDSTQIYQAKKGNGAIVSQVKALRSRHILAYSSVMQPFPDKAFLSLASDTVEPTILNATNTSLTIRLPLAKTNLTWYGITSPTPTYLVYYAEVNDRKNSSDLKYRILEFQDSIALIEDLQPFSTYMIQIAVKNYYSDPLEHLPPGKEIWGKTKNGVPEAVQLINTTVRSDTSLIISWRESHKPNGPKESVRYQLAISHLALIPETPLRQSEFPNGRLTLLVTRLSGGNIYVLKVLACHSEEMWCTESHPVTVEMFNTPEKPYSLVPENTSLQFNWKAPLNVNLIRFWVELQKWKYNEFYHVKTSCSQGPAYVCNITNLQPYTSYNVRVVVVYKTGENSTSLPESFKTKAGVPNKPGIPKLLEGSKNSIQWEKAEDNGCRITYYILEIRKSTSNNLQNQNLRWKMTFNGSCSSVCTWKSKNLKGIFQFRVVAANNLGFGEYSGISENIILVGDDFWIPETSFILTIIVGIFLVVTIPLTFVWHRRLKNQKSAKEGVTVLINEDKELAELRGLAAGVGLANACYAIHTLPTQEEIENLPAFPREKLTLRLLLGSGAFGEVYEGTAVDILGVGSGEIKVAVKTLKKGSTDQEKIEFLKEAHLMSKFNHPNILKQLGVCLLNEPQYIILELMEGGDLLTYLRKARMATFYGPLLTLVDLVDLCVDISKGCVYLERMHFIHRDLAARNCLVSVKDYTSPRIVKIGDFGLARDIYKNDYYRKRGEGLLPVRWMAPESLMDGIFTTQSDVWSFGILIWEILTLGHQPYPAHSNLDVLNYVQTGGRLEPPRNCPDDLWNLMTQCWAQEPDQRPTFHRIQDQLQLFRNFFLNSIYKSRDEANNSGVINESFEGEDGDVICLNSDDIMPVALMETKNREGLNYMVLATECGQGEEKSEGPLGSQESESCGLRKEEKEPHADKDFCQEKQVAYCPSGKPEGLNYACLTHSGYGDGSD

The term IC50 denotes the concentration that gives 50% inhibition. For `NCC1CCN(C(=O)c2ccc(Nc3ncc(Cl)c(Nc4ccc5ncsc5c4)n3)cc2)CC1` [drawing 326], the IC50 on EGFR was more than 5 µM; on ROS [1], 0.368 µM. Moreover, the inhibition at 5 µM on ROS [1] was 100%.

Compound `CC(C)(C)OC(=O)NC1CCN(C(=O)c2ccc(Nc3ncc(Cl)c(Nc4ccc5ncsc5c4)n3)cc2)CC1` [drawing 309] came in with an IC50 against EGFR of more than 5 µM. Besides, on ROS [1], the IC50 was more than 5 µM and the inhibition at 5 µM amounted to 29.4%.

As to `Cc1cc(O)cc(-c2nn(CC#N)cc2-c2ccnc(-c3cccnc3)c2)c1` [KIST301080], at ROS [2], the IC50 was 0.209 µM.

Consider `O=C(O)c1cccc(Nc2ncc(Cl)c(Nc3ccc4ncsc4c3)n2)c1` [drawing 325], for which the IC50 against EGFR is more than 5 µM; at ROS [1], 0.189 µM. Further, the inhibition at 5 µM on ROS [1] is 100%.

Turning to `Clc1nccc(Nc2cc(C3CC3)[nH]n2)n1` [drawing 298], on EGFR, the IC50 is more than 50 µM. In addition, on ROS [1], half-maximal inhibition (IC50) was put at 2.1 µM and the inhibition at 5 µM worked out at 38.4%.

For `O=C(NCC1CCNCC1)c1cccc(Nc2ncc(Cl)c(Nc3ccc4ncsc4c3)n2)c1` [drawing 334], the IC50 at EGFR is more than 5 µM. For the same compound, on ROS [1], the IC50 was 0.38 µM and the inhibition at 5 µM worked out at 100%.

As to `NC1CCN(C(=O)c2ccc(Nc3ncc(Cl)c(Nc4ccc5ncsc5c4)n3)cc2)CC1` [drawing 327], the figures for the IC50 on EGFR and against ROS [1] were more than 5 µM and 0.444 µM, respectively. Besides, the inhibition at 5 µM on ROS [1] is 100%.

Compound `O=C(O)c1ccc(Nc2ncc(Cl)c(Nc3ccc4ncsc4c3)n2)cc1` [drawing 308] yielded an IC50 against EGFR of 2.4 µM. On ROS [1], the IC50 came out at 0.037 µM and the inhibition at 5 µM worked out at 101%.

With `COc1ccc(C2=CCNCC2)cc1Nc1nccc(Nc2ccc3ncsc3c2)n1` [drawing 330], on EGFR, the IC50 was found to be 0.802 µM. Also, at ROS [1], the concentration for half-maximal inhibition (IC50) was determined as 0.003 µM and the inhibition at 5 µM is 100%.

As for `c1cc(Nc2nccc(Nc3ccc4ncsc4c3)n2)cc(C2CCNCC2)c1` [drawing 303], on EGFR, half-maximal inhibition (IC50) required 4.6 µM. At ROS [1], it took 0.042 µM to reach half-maximal inhibition (IC50) and the inhibition at 5 µM worked out at 100%.

Take `O=C(NCC1CCNCC1)c1ccc(Nc2ncc(Cl)c(Nc3ccc4ncsc4c3)n2)cc1` [drawing 331]: the IC50 at EGFR was more than 5 µM. Besides, on ROS [1], the half-maximal inhibitory concentration (IC50) was determined as 1.01 µM and the inhibition at 5 µM stood at 100%.

`CN1CCN(C(=O)c2ccc(Nc3ncc(Cl)c(Nc4ccc5ncsc5c4)n3)cc2)CC1` [drawing 307]: at EGFR, the IC50 was more than 5 µM. On ROS [1], inhibition was half-maximal at 0.405 µM (IC50) and the inhibition at 5 µM was determined as 92.2%.

At EGFR, `c1cc(Nc2cc(C3CC3)[nH]n2)nc(Nc2ccc(NCc3cc(C4OCCO4)c(C4OCCO4)s3)cc2)n1` [drawing 300] returned an IC50 of more than 50 µM. In addition, at ROS [1], half-maximal inhibition (IC50) was put at 1.14 µM and the inhibition at 5 µM was 79.3%.

With `NCC1CCN(C(=O)c2cccc(Nc3ncc(Cl)c(Nc4ccc5ncsc5c4)n3)c2)CC1` [drawing 333], the IC50 on EGFR is more than 5 µM. On ROS [1], the midpoint of inhibition, the IC50, lay at 0.11 µM and the inhibition at 5 µM stood at 100%.

As for `Nc1cccc(C2CCN(c3nccc(Nc4ccc5ncsc5c4)n3)CC2)c1` [drawing 302], the IC50 against EGFR came to 4.7 µM. In addition, on ROS [1], the IC50 is 0.048 µM and the inhibition at 5 µM is 101%.

As to `CN1CCN(C(=O)c2cccc(Nc3ncc(Cl)c(Nc4ccc5ncsc5c4)n3)c2)CC1` [drawing 329], the IC50 against EGFR was more than 5 µM; on ROS [1], 0.33 µM. Moreover, the inhibition at 5 µM on ROS [1] stood at 100%.

On EGFR, `C1=C(c2cccc(Nc3nccc(Nc4ccc5ncsc5c4)n3)c2)CCNC1` [drawing 304] yielded an IC50 of more than 5 µM. On ROS [1], half-maximal inhibition (IC50) required 0.041 µM and the inhibition at 5 µM stood at 101%.

The term EC50 denotes the concentration at which the effect is half-maximal. For `Cc1cccc(Nc2nccc(Nc3cccc(C(=O)Nc4ccc(F)cc4)c3)n2)c1` [drawing 382], the EC50 in assay [3] (24 h) was 27 µM; in assay [4] (24 h) it was 75 µM; in assay [5] (Homo sapiens, 24 h), 14 µM; in assay [6] (24 h) it was 30 µM; in assay [7] (Homo sapiens, LN-18, 24 h), 6 µM.

As to `NC(=O)c1c(NC(=O)Nc2ccccc2)sc2c1CCCC2` [drawing 401], the 50% effective concentration (EC50) in assay [3] (24 h) stood at 80 µM; in assay [4] (24 h) it was 27 µM; in assay [5] (Homo sapiens, 24 h), 16 µM; in assay [6] (24 h), 34 µM; in assay [7] (Homo sapiens, LN-18, 24 h), 38 µM.

On to `O=C(NNc1cc(C(F)(F)F)ccc1Cl)c1cccnc1Oc1ccccc1` [drawing 390], for which the EC50 is 96 µM in assay [3] (24 h); more than 100 µM in assay [4] (24 h); 59 µM in assay [5] (Homo sapiens, 24 h); more than 100 µM in assay [6] (24 h); 58 µM in assay [7] (Homo sapiens, LN-18, 24 h).

`O=C(c1ccc(Nc2ncc(Cl)c(Nc3ccc4ncsc4c3)n2)cc1)N1CCCCC1` [drawing 306]: the IC50 at EGFR was more than 5 µM. Further, at ROS [1], 0.07 µM corresponded to half-maximal inhibition (IC50) and the inhibition at 5 µM is 87.9%.

In the case of `O=C(NC[C@@H]1CCCO1)c1cccc(Nc2nccc(Nc3ccc4ncsc4c3)n2)c1`, the concentration for a half-maximal effect (EC50) is 16 µM in assay [3] (24 h); more than 100 µM in assay [4] (24 h); 11 µM in assay [5] (Homo sapiens, 24 h); more than 100 µM in assay [6] (24 h); 15 µM in assay [7] (Homo sapiens, LN-18, 24 h).

With `CCC(C)(C)NC(=O)c1cccc(Nc2nccc(Nc3ccc4ncsc4c3)n2)c1` [drawing 380], the EC50 is 22 µM in assay [3] (24 h); 46 µM in assay [4] (24 h); 8 µM in assay [5] (Homo sapiens, 24 h); 15 µM in assay [6] (24 h); 15 µM in assay [7] (Homo sapiens, LN-18, 24 h).

For `CSc1sc(-c2n[nH]cc2Br)c2c1C(=O)CC(C)(C)C2` [drawing 396], the concentration for a half-maximal effect (EC50) is 18 µM in assay [3]; more than 100 µM in assay [4]; more than 100 µM in assay [5]; more than 100 µM in assay [6]; 94 µM in assay [7].

In the case of `NC1CCN(C(=O)c2cccc(Nc3ncc(Cl)c(Nc4ccc5ncsc5c4)n3)c2)CC1` [drawing 332], the IC50 at EGFR was more than 5 µM. At ROS [1], the IC50 was found to be 0.165 µM and the inhibition at 5 µM came out at 100%.

`O=C(c1cccc(Nc2ncc(Cl)c(Nc3ccc4ncsc4c3)n2)c1)N1CCCCC1` [drawing 328]: the IC50 against EGFR was more than 5 µM; against ROS [1] it was 0.24 µM. Besides, the inhibition at 5 µM on ROS [1] came out at 100%.

For the compound `O=C(NCCc1ccc(F)cc1)c1cccc(Nc2nccc(Nc3ccc4ncsc4c3)n2)c1` [drawing 372], the EC50 worked out at 10 µM in assay [3] (24 h); 8 µM in assay [4] (24 h); 5 µM in assay [5] (Homo sapiens, 24 h); 9 µM in assay [6] (24 h); 6 µM in assay [7] (Homo sapiens, LN-18, 24 h).

On to `Nc1ccc(Nc2nccc(Nc3cc(C4CC4)[nH]n3)n2)cc1` [drawing 436], for which the EC50 was found to be 5 µM in assay [3] (24 h); 1.9 µM in assay [4] (24 h); 0.4 µM in assay [5] (Homo sapiens, 24 h); 30 µM in assay [6] (24 h); 10 µM in assay [7] (Homo sapiens, LN-18, 24 h).

With `Brc1cccc(Nc2nccc(Nc3ccc4ncsc4c3)n2)c1` [drawing 305], the IC50 at EGFR was more than 5 µM. In addition, at ROS [1], the IC50 came out at 0.017 µM and the inhibition at 5 µM is 90%.

As to `Cc1ccc(-n2cc(-c3cccs3)nc2SCc2n[nH]c(=S)n2Cc2ccccc2)cc1` [drawing 393], the EC50 in assay [3] was 24 µM; in assay [4], more than 100 µM; in assay [5] it was more than 100 µM; in assay [6], more than 100 µM; in assay [7] it was more than 100 µM.

Turning to `Nc1nc(Nc2ccc(C(=O)N3CCC[C@H]4CCCC[C@H]43)cc2)cc(Nc2ccc3ncsc3c2)n1`, the concentration for a half-maximal effect (EC50) in assay [3] (24 h) was 30 µM; in assay [4] (24 h), more than 100 µM; in assay [5] (Homo sapiens, 24 h), 58 µM; in assay [6] (24 h), more than 100 µM; in assay [7] (Homo sapiens, LN-18, 24 h) it was 14 µM.

Take `C[C@@H](Oc1cc(-c2cnn(C3CCNCC3)c2)cnc1N)c1c(Cl)ccc(F)c1Cl` [drawing 491]: the EC50 in assay [3] (24 h) turned out to be 12 µM; in assay [4] (24 h), 11.9 µM; in assay [5] (Homo sapiens, 24 h) it was 15 µM; in assay [6] (24 h) it was 13 µM; in assay [7] (Homo sapiens, LN-18, 24 h), 20 µM.

As for `O=C(c1cccc(-c2noc(-c3n[nH]c4c3CCCC4)n2)c1)N1CCCCC1` [drawing 385], the EC50 is 14 µM in assay [3] (24 h); 83 µM in assay [4] (24 h); more than 100 µM in assay [5] (Homo sapiens, 24 h); 83 µM in assay [6] (24 h); 62 µM in assay [7] (Homo sapiens, LN-18, 24 h).

`Nc1ccc(Nc2nccc(Nc3cc(C4CC4)[nH]n3)n2)cc1` [drawing 299]: the 50% inhibitory concentration (IC50) on EGFR worked out at 18.9 µM; against ROS [1], 0.045 µM. Further, the inhibition at 5 µM at ROS [1] amounted to 100%.

Source of the values: patent US9963452B2, “Methods, compounds, and compositions for inhibition of ROS” (AUGUSTA PHARMACEUTICALS INC., priority 2013, dated 2018).
